Consider 34 molecules from patent US20220106304A1, “Transcription Factor BRN2 Inhibitory Compounds as Therapeutics and Methods for Their Use” (The University of British Columbia, priority 2018, published 2022).

One may read the inhibition as the change of the read-out against control, counted positive when it falls.

The target of the data set is T1, BRN2 (Homo sapiens, UniProt P20265).
T1 sequence (P20265 1-443): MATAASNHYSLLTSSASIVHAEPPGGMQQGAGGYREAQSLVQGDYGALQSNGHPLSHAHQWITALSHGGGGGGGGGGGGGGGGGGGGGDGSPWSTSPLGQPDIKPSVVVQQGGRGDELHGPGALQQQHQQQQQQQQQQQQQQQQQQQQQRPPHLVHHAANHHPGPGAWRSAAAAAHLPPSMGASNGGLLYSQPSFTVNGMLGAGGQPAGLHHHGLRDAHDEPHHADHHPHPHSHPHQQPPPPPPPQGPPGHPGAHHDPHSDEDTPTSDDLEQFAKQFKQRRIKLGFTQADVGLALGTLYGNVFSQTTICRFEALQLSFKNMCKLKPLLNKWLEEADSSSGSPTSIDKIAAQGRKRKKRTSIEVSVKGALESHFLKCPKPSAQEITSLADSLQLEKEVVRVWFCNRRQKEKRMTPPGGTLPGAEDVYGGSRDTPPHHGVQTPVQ
Description: cell-based. To be noted: for % BRN2 Inhibition (10 μM): 10 μM compound; for % BRN2 Inhibition (10 μM) / % BRN2 Inhibition (30 μM): 24 hours, 42D^ENZR cells stably expressing BRN2-luciferase reporter; for % BRN2 Inhibition (10 μM) / % BRN2 Inhibition (30 μM) / inhibition at 10 µM / inhibition at 30 µM: negative = activation; for % BRN2 Inhibition (30 μM): 30 μM compound; for inhibition at 10 µM: read-out: % BRN2 Inhibition (10 μM), 10 μM compound, 24 hours, 42D^ENZR cells stably expressing BRN2-luciferase reporter; for inhibition at 30 µM: read-out: % BRN2 Inhibition (30 μM), 30 μM compound, 24 hours, 42D^ENZR cells stably expressing BRN2-luciferase reporter; for cell death (30 μM): cell death = severe toxicity at a low dose. From the text: Decreased expression of luciferase protein is validated via western blot to confirm downregulation and avoid false positive molecules that inhibit luciferase protein activity and not BRN2-drive luciferase expression. Molecules are prioritized by their inhibition potency to measure direct interaction with BRN2 in Step 2.
In TABLES 1 and 2, when a single value is mentioned in columns Met Stab % and T½, it refers to compound's stability in MLM and when two values are given they represent HLM/MLM. There is a distinction in TABLES 1 and 2 difference between “Active” and “Specific” or “Specificity”. Compounds are first tested to quantify inhibition of BRN2 transcriptional activity in a luciferase assay to determine “Activity” at […] and 30 μM concentrations. […] Where data is not available “na” is inserted. Where data has yet to be calculated the notation “nc” is used.
Background: A reporter such as luciferase makes a cellular process visible.

Take `CCn1c(-c2csc(-c3ccccn3)n2)nc2ccccc21` [VPC-18-15]: the “% BRN2 Inhibition (10 μM)” value was “insoluble” and the “% BRN2 Inhibition (30 μM)” value is “insoluble”.

On to `Cn1c(-c2ccc(-c3ccccc3)o2)nc2ccc([N+](=O)[O-])cc21` [VPC-18-30, 1-Methyl-6-nitro-2-(5-phenylfuran-2-yl)-1H-benzo[d]imidazole], for which the inhibition at 10 µM was 2.63% and the inhibition at 30 µM came out at 17.4%.

In the case of `Cn1c(-c2ccc(-c3ccc(Br)cc3Cl)o2)nc2ccc(C(F)(F)F)cc21` [VPC-18-34, 2-(5-(4-Bromo-2-chlorophenyl)furan-2-yl)-1-methyl-6-(trifluoromethyl)-1H-benzo[d]imidazole], the inhibition at 10 µM was -0.86% and the inhibition at 30 µM was determined as 46.7%.

Regarding `Cn1c(-c2csc(-c3ccccc3)n2)nc2ccc(Cl)cc21` [VPC-18-37, 4-(6-Chloro-1-methyl-1H-benzo[d]imidazol-2-yl)-2-phenylthiazole], the inhibition at 10 µM is -14.5% and the inhibition at 30 µM is -58.7%.

In the case of `c1ccc2oc(-c3csc(N4CC5CC4CO5)n3)cc2c1` (stereo not shown) [VPC-18-38, 5-(4-(Benzofuran-2-yl)thiazol-2-yl)-2-oxa-5-azabicyclo[2.2.1]heptane], the inhibition at 10 µM is -51.2% and the inhibition at 30 µM came out at 67%.

Take `Cn1c(-c2ccc(-c3ccc(F)cc3F)o2)nc2ccc([N+](=O)[O-])cc21` [VPC-18-39, 2-(5-(2,4-Difluorophenyl)furan-2-yl)-1-methyl-6-nitro-1H-benzo[d]imidazole]: the inhibition at 10 µM was -150% and the inhibition at 30 µM is -63.1%.

Consider `O=[N+]([O-])c1ccc2nc(-c3ccc(-c4ccc(Br)cc4Cl)o3)[nH]c2c1` [VPC-18-40, 2-(5-(4-Bromo-2-chlorophenyl)furan-2-yl)-6-nitro-1H-benzo[d]imidazole], for which the inhibition at 10 µM is -32.7% and the inhibition at 30 µM was -84.1%.

On to `Cn1c(-c2ccc(-c3cncnc3)o2)nc2ccccc21` [VPC-18-43, 1-Methyl-2-(5-(pyrimidin-5-yl)furan-2-yl)-1H-benzo[d]imidazole], for which the inhibition at 10 µM was -124% and the inhibition at 30 µM was -83%.

For `O=[N+]([O-])c1ccc(-c2nc(-c3cc4ccccc4o3)cs2)cc1` [VPC-18-44, 4-(Benzofuran-2-yl)-2-(4-nitrophenyl)thiazole], the inhibition at 10 µM is -45% and the inhibition at 30 µM was -104%.

With `NS(=O)(=O)c1ccc2nc(-c3csc(-c4ccccc4F)n3)[nH]c2c1` [VPC-18-46, 2-(2-(2-Fluorophenyl)thiazol-4-yl)-1H-benzo[d]imidazole-6-sulfonamide], the inhibition at 10 µM was -69.6% and the inhibition at 30 µM is -158%.

On to `O=[N+]([O-])c1ccc(-c2nc(-c3cc4ccccc4o3)cs2)o1` [VPC-18-49, 4-(Benzofuran-2-yl)-2-(5-nitrofuran-2-yl)thiazole], for which the inhibition at 10 µM was -48% and the inhibition at 30 µM was -21%.

In the case of `Cn1c(-c2ccc(N3CC4CC3CO4)o2)nc2ccccc21` (stereo not shown) [VPC-18-50, 5-(5-(1-Methyl-1H-benzo[d]imidazol-2-yl)furan-2-yl)-2-oxa-5-azabicyclo[2.2.1]heptane], the inhibition at 10 µM was -26.6% and the inhibition at 30 µM was found to be 27.5%.

Turning to `O=[N+]([O-])c1ccc2cc(-c3csc(-c4ccco4)n3)oc2c1` [VPC-18-52, 2-(Furan-2-yl)-4-(6-nitrobenzofuran-2-yl)thiazole], the inhibition at 10 µM is -15.8% and the inhibition at 30 µM was -46%.

Consider `O=[N+]([O-])c1ccc(-c2nc(-c3cc4ccc(F)cc4o3)cs2)o1` [VPC-18-54, 4-(6-Fluorobenzofuran-2-yl)-2-(5-nitrofuran-2-yl)thiazole], for which the inhibition at 10 µM is -60% and the inhibition at 30 µM is -45%.

As for `O=[N+]([O-])c1ccc2cc(-c3csc(-c4ccc(F)cc4F)n3)oc2c1` [VPC-18-55, 2-(2,4-Difluorophenyl)-4-(6-nitrobenzofuran-2-yl)thiazole], the inhibition at 10 µM was -9.94% and the inhibition at 30 µM is -54%.

As to `Cn1c(-c2csc(-c3ccc(Br)cc3F)n2)nc2ccc(F)cc21` [VPC-18-56, 2-(4-Bromo-2-fluorophenyl)-4-(6-fluoro-1-methyl-1H-benzo[d]imidazol-2-yl)thiazole], the “% BRN2 Inhibition (10 μM)” value was “INACTIVE” and the “% BRN2 Inhibition (30 μM)” value is given as “INACTIVE”.

Take `Cc1c(-c2csc(-c3ccc(Br)cc3F)n2)oc2cc(F)ccc12` [VPC-18-57, 2-(4-Bromo-2-fluorophenyl)-4-(6-fluoro-3-methylbenzofuran-2-yl)thiazole]: the “% BRN2 Inhibition (10 μM)” value was “INACTIVE” and the “% BRN2 Inhibition (30 μM)” value is “INACTIVE”.

`Cn1c(-c2ccc(C3CCCO3)o2)nc2ccccc21` (stereo not shown) [VPC-18-58, 1-Methyl-2-(5-(tetrahydrofuran-2-yl)furan-2-yl)-1H-benzo[d]imidazole]: the “% BRN2 Inhibition (10 μM)” value is on record as “INACTIVE” and the “% BRN2 Inhibition (30 μM)” value is listed as “INACTIVE”.

For the molecule `Clc1cc(Br)ccc1-c1nc(-c2cc3ccccc3o2)cs1` [VPC-18-59, 4-(Benzofuran-2-yl)-2-(4-bromo-2-chlorophenyl)thiazole], the “% BRN2 Inhibition (10 μM)” value was “INACTIVE” and the “% BRN2 Inhibition (30 μM)” value is reported as “INACTIVE”.

With `Cn1c(-c2ccc(-c3ccc(Br)cc3Cl)o2)nc2ccccc21` [VPC-18-60], the inhibition at 10 µM turned out to be 13% and the inhibition at 30 µM is -37%.

For `Cn1c(-c2ccc(-c3ccccc3)o2)nc2ccc(C(F)(F)F)cc21` [VPC-18-61], the inhibition at 10 µM is -97% and the inhibition at 30 µM is -92%.

With `Cn1c(-c2ccc(-c3ccc(C#N)cc3)o2)nc2ccccc21` [VPC-18-62], the inhibition at 10 µM is -62% and the inhibition at 30 µM is -110%.

On to `Cn1c(-c2ccc(-c3cccnc3)o2)nc2ccc(C(F)(F)F)cc21` [VPC-18-64], for which the inhibition at 10 µM was -30% and the inhibition at 30 µM was -59%.

In the case of `Cn1c(-c2ccc(-c3ccccc3F)o2)nc2ccc(C(F)(F)F)cc21` [VPC-18-65], the inhibition at 10 µM is -52% and the inhibition at 30 µM is -3%.

With `Cn1c(-c2ccc(C3=CCNCC3)o2)nc2ccccc21` [VPC-18-67], the inhibition at 10 µM was -38% and the inhibition at 30 µM was found to be 8%.

For `CN1CCC(c2ccc(-c3nc4ccccc4n3C)o2)CC1` [VPC-18-68], the inhibition at 10 µM came out at 11% and the inhibition at 30 µM is 14%.

`Cn1c(-c2ccc(-c3ccc(F)cc3F)o2)nc2ccc(C(F)(F)F)cc21` [VPC-18-69]: the inhibition at 10 µM is -8% and the inhibition at 30 µM is 12%.

Regarding `Cl.Cn1c(-c2ccc(C3=CCNCC3)o2)nc2ccc(C(F)(F)F)cc21` [VPC-18-70, 1-methyl-2-(5-(1,2,3,6-tetrahydropyridin-4-yl)furan-2-yl)-6-(trifluoromethyl)-1H-benzo[d]imidazole hydrochloride], the “cell death (30 μM)” value is given as “cell death”, the inhibition at 10 µM was 74% and the inhibition at 30 µM stood at 100%.

Take `Cn1c(-c2ccc(N3CCC(F)(F)CC3)o2)nc2ccc(C(F)(F)F)cc21` [VPC-18-79]: the inhibition at 10 µM was -12.3% and the inhibition at 30 µM was determined as 2.4%.

As for `NC(=O)c1ccc2cc(-c3csc(-c4ccco4)n3)oc2c1` [VPC-18-83], the inhibition at 10 µM was -40% and the inhibition at 30 µM is -10%.

With `Cl.Clc1ccc2cc(-c3csc(C4=CCNCC4)n3)oc2c1` [VPC-18-95, 4-(6-chlorobenzofuran-2-yl)-2-(1,2,3,6-tetrahydropyridin-4-yl)thiazole hydrochloride], the “cell death (30 μM)” value was “cell death”, the inhibition at 10 µM is 79.8% and the inhibition at 30 µM was 100%.

For the molecule `Clc1ccc2cc(-c3csc(C4=CCNCC4)n3)oc2c1` [VPC-18-97, 4-(6-chlorobenzofuran-2-yl)-2-(1,2,3,6-tetrahydropyridin-4-yl)thiazole], the “% BRN2 Inhibition (10 μM)” value turned out to be 65% and the “% BRN2 Inhibition (30 μM)” value turned out to be 99.95%.

With `FC(F)(F)c1cccc2oc(-c3csc(-c4ccco4)n3)cc12` [VPC-18-101], the inhibition at 10 µM is -81% and the inhibition at 30 µM was -43%.

Regarding `O=C(NC1(c2ccco2)CC1)c1cc2ccc(C(F)(F)F)cc2o1` [VPC-18-119], the inhibition at 10 µM came to 69.9% and the inhibition at 30 µM was -25%.
